# Values quoted from earlier work, collected in patent publication EP2697366B1, “B[…] THE PRESERVATION OF CELLULAR FUN[…] CLINICAL CELL THERAPY” (Johann Wolfgang Goethe-Universität, Frankfurt am Main, priority 2011, dated 2018).
# Columns and labels:
# [1] = in vivo
# [2] = two large clinical studies
compound,measurement,setting,value
CC[C@H](C)[C@H](NC(=O)[C@H](CCC(=O)O)NC(=O)[C@H](CCC(=O)O)NC(=O)[C@H](Cc1ccccc1)NC(=O)[C@H](CC(=O)O)NC(=O)CNC(=O)[C@H](CC(N)=O)NC(=O)CNC(=O)CNC(=O)CNC(=O)CNC(=O)[C@@H]1CCCN1C(=O)[C@H](CCCNC(=N)N)NC(=O)[C@@H]1CCCN1C(=O)[C@H](N)Cc1ccccc1)C(=O)N1CCC[C@H]1C(=O)N[C@@H](CCC(=O)O)C(=O)N[C@@H](CCC(=O)O)C(=O)N[C@@H](Cc1ccc(O)cc1)C(=O)N[C@@H](CC(C)C)C(=O)O [Bivalirudin],Eliminationshalbwertszeit,[1],ca. 25 Minuten
same,schwere Blutungskomplikationen,[2],hochsignifikanten Reduktion schwerer Blutungskomplikationen
